Test results from US10508113B2, “Inhibitors of tyrosine kinase 2 mediated signaling” (AbbVie Inc., priority 2018, dated 2019).

Key:
Jak2 = biological target: T1, Jak2 (Homo sapiens, UniProt O60674); assay: Jak2 (PSTATS UT7) alpha screen assay: inhibition of EPO induced phosphorylation of STAT5 in UT7 cells; format: cell-based; conditions: calculated from tabulated EC50 data (Jak2 / Tyk2)
T1 construct: Cell Type: UT7 cells engineered to express the erythropoietin (EPO) receptor; endogenous in cells; host or cells: UT7 cells engineered to express the EPO receptor
T1 sequence (O60674 whole entry): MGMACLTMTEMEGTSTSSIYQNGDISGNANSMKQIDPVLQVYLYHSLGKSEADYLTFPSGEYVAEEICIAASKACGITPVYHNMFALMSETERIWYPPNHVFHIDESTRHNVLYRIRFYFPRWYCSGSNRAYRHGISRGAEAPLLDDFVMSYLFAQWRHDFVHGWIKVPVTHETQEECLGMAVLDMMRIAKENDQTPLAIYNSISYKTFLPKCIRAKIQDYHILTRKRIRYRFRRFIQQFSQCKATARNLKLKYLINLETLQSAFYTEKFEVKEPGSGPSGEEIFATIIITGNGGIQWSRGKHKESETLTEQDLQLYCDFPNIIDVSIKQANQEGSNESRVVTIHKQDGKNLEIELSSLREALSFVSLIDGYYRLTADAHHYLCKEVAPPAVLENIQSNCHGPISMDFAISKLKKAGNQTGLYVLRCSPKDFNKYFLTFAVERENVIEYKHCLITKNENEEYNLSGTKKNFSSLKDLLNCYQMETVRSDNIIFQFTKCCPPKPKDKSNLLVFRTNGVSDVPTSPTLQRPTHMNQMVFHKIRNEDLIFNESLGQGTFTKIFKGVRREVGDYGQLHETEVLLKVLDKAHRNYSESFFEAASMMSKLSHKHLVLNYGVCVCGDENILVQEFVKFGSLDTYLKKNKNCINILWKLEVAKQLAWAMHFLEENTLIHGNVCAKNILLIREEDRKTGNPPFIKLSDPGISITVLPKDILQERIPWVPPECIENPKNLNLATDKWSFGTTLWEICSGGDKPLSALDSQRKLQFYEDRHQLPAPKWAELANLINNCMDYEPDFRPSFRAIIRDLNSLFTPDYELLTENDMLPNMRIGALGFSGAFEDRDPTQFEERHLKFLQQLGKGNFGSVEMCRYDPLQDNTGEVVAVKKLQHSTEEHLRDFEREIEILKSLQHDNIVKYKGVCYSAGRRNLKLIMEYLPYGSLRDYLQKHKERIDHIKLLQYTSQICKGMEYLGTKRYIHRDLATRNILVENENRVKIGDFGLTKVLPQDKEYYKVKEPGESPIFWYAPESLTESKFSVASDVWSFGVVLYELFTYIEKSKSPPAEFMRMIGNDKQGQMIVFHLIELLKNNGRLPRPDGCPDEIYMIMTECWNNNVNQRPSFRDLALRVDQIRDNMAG
Description: 3. JAK2 (PSTATS UT7) ALPHA SCREEN ASSAY
Erythropoietin (EPO) is known to transduce its signal through EPO receptor via Jak2. Activity against Jak2 was therefore measured by determining inhibition of EPO induced phosphorylation of STATS in UT7 cells. […] Materials
Cell Type: UT7 cells engineered to express the erythropoietin (EPO) receptor; Culture Medium: Dulbecco's Modified Eagle Medium (DMEM) with 2 mM L-glutamine, 10 mM hydroxyethyl piperazineethanesulfonic acid (HEPES), 10% heat-inactivated fetal bovine serum (FBS) and Stock EPO (5000U in 250 uL, need 5U/mL, so add 250 μL to 1L of media); Assay Medium: 5% FBS ultra-low IgG and 1% Pen/Strep. Compounds were made-up in 100% dimethyl sulfoxide (DMSO).
Day One - Starve Cells: 4 Flasks for one 384 plate (spin down @1000 rpm for 10 minutes and add DMEM with no EPO).
(§1) Day Two—Compound Dilutions:
i. Manual 8-point 1:3 dilution curve: 5 mM top concentration dispensed in row A of a
Corning 96-well polypropylene plate, columns 2-12. DMSO dispensed in position A01 for low and high controls. Compounds were serially diluted 1:3 by adding 10 μL stock to 20 μL DMSO down the plate.
ii. Media dilution of compounds: Serially diluted compounds were diluted 1:50 in assay medium by adding 4 μL compound to 196 μL assay medium in a Corning 96-well polypropylene plate.
384 Alpha Screen Plate Set up: Transferred 2.5 μL/well of compound solution from last dilution plate. Replicates were vertical, so that one column of the 96-well dilution plate goes into one column on the 384-well plate twice. Plated 1×10^5 starved cells/well in 5μL. Washed cells in 10 mL Hank's balanced salt solution (HBSS) after spinning down. Counted live cells. Multiplied by dilution factor and 10,000 (constant) to get the concentration of viable cells. Multiplied by volume of cells to get the total number of live cells. Divided by 20,000,000 cells/mL to get the volume needed. Subtracted the original volume to get the volume to be added to get the final concentration of cells. Mixed in reservoir if needed, ensuring that all cell clumps are broken up (if not broken up, they were removed from the suspension). Cells were plated at 5 μL/well in gray Alpha Screen 384-well plate. Spinned the plate to bring the contents to the bottom of the wells at 400 rpm for 2 minutes. Top final compound concentration: 25 μM. Sealed with adhesive and tapped gently. Incubated cells at 37° C. for 30 minutes.
c. EPO Stimulation (p STATS)
Once cells were in incubator, immediately prepared working stock of EPO (1 nM final assay concentration). EPO stock=2860 nM of sterile filtered liquid in sodium citrate buffer (1 liter of ddH2O containing 5.9 g of sodium citrate, 5.8 g of sodium chloride and 0.06 g of citric acid). Diluted 1:22.72 by adding 4.44 stock EPO to 95.6 pi assay media, then dilute again […] depending on how much volume is needed for the assay plates. Used assay medium to bring to volume. Added 2.5 μL EPO to each well. Spinned plate at 400 rpm briefly; tap the plate gently before covering with an adhesive seal. Cells were incubated at 37° C. for 20 minutes.
Added 2.5 μL of 5X Lysis buffer to each well. Spinned plate at 400 rpm briefly. Incubated at room temperature (on orbital shaker) for 10 minutes.
e. Protein (A) Acceptor Beads Preparation: (Light sensitive)
(§2) Phosphorylated Signal Transducer and Activator of Transcription 5 (pSTAT5) was quantified using the PerkinElmer SureFire pSTATS (Tyrosine 694/699) Assay. Calculated total volume needed (wells×15 μL×30%). Divided total volume by 5 to get volume of activation buffer. Subtracted volume of activation buffer from total volume and divide by 40 to get volume of acceptor beads (add last). Total volume - acceptor bead volume - activation buffer to get volume of reaction buffer. Added 15 μL to each well and covered with foil. Shaked on orbital shaker for 2 hours at 500 rpm.
(§3) f. Streptavidin Donor Beads Preparation:
Calculated total volume needed (wells×6μL×30%). […]

Jak1 = biological target: T2, Jak1 (Homo sapiens, UniProt P23458); assay: Jak1 (PSTAT3 TF1) alpha screen assay: inhibition of IL-6 induced phosphorylation of STAT3 in TF1 cells; format: cell-based; conditions: calculated from tabulated EC50 data (Jak1 / Tyk2)
T2 construct: endogenous in cells; host or cells: TF1 cells
T2 sequence (P23458 whole entry): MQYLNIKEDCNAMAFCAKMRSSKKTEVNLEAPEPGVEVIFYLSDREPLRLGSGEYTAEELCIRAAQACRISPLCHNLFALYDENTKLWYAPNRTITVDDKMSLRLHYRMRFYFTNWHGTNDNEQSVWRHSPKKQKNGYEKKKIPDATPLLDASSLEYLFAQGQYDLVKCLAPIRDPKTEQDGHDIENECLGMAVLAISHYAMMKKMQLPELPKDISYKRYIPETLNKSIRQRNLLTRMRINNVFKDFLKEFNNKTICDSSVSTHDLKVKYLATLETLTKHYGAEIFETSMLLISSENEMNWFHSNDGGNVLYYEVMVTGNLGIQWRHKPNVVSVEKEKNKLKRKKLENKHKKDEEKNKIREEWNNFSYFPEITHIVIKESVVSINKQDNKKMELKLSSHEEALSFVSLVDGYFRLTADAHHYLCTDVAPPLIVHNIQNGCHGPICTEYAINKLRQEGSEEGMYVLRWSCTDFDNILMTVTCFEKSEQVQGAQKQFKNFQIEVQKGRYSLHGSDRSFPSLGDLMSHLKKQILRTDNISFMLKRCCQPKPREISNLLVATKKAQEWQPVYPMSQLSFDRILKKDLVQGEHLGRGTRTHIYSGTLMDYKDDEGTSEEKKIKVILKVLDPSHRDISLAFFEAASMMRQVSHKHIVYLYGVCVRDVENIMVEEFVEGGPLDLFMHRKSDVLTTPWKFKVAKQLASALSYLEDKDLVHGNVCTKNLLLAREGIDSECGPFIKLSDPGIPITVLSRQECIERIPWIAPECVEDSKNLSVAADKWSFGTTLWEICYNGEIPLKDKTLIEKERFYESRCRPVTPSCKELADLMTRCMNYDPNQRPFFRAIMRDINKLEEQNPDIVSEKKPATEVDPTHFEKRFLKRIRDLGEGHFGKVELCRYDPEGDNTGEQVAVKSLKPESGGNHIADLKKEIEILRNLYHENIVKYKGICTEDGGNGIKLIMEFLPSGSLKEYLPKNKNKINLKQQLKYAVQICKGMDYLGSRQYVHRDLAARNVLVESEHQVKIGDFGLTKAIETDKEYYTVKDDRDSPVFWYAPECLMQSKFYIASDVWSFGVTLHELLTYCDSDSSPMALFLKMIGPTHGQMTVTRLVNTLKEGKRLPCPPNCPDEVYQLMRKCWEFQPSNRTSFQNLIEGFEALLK
Description: 2. JAK1 (PSTAT3 TF1) ALPHA SCREEN ASSAY
IL-6 is known to transduce its signal through IL-6 receptor via Jak1. Activity against Jak1 was therefore measured by determining inhibition of IL-6 induced phosphorylation of STAT3 in TF1 cells.
Cell Type: TF1 Cells; Culture Medium: RPMI 1640 Medium, 2mM L-glutamine, 10% heat- inactivated fetal bovine serum (FBS), 10 mM hydroxyethyl piperazineethanesulfonic acid (HEPES), and 2 ng/mL recombinant human interleukin-6(IL-6); Assay Medium: Dulbecco's Modified Eagle Medium (DMEM) medium with 2 mM L-glutamine, 10 mM HEPES, 100 U/mL penicillin/streptomycin, 1.5 g/L sodium bicarbonate, 4.5 g/L glucose, 1 mM sodium pyruvate, 10% heat-inactivated FBS; Compound Preparation: Compounds are dissolved in 100% dimethyl sulfoxide (DMSO).
Day One—Starve Cells: 4 Flasks for one 384 plate (spin down @1000 rpm for 10 minutes and add RPMI 1640 Medium, 2 mM L-glutamine, 10% FBS, 10 mM HEPES with no IL-6 -incubate overnight).
as §1
i. Manual 8-point 1:5 dilution curve: 5 mM top concentration dispensed in row A of a
Corning 96-well polypropylene plate, columns 2-12. DMSO dispensed in position A01 for low and high controls. Compounds were serially diluted 1:5 by adding 10 μL stock to […] DMSO down the plate.
ii. Media dilution of compounds: Serially diluted compounds were further diluted 1:12.5 in assay medium by adding 4 μL compound to 46 μL assay medium in a Corning 96-well polypropylene plate.
384 Alpha Screen Plate Set up: Transfer 2.5 μL/well of compound solution from assay media dilution plate. Replicates were vertical, one column of the 96-well dilution plate goes into one column on the 384-well plate twice. Plated 1×10^5 starved cells/well in 5 μL. Washed cells in 10 mL DMEM medium after spinning down. Brought cell pellet up in assay media. Counted live cells. Multiplied by dilution factor and 10,000 (constant) to get the concentration of viable cells. Multiplied by volume of assay media used to bring up cells to get the total number of live cells. Divided by 20,000,000 cells/mL to get the volume needed. Cells were plated at 5 μL/well in gray Alpha Screen 384-well plate. Spinned the plate to bring the contents to the bottom of the wells at 300 rpm for 60 seconds. Top final compound concentration: 25 μM. Sealed with adhesive and tapped gently. Incubated plate at 37° C. for 30 minutes. c. IL-6 Stimulation (pSTAT3)
Once cells were in incubator, immediately prepared working stock of IL-6 (100 ng/mL final concentration). IL-6 stock=10 μg/mL of IL-6 in phosphate buffered saline with 0.1% bovine serum albumin. Diluted 1:25 by adding 60 μL stock IL-6 to 1440 μL assay media. Added 2.5 μL IL-6 to each well. Spinned plate at 300 rpm briefly; tapped the plate gently before covering with an adhesive seal. Incubated plate at 37° C. for 30 minutes.
Added 2.5 μL of 5X Lysis buffer to each well. Incubated at room temperature on orbital shaker for 10 minutes.
e. Protein (A) Acceptor Beads Preparation:
as §2, with “3 (pSTAT3)” for “5 (pSTAT5)”, “pSTAT3” for “pSTATS”, “705)” for “694/699)”, “(wells×[…]×25%).” for “(wells×15 μL×30%).”, “volume−acceptor” for “volume - acceptor”, “volume−activation buffer=volume” for “volume - activation buffer to get volume”
as §3
Calculated total volume needed (wells×[…]×25%). Divided total volume by 20 to get volume of donor beads (add last). Subtracted volume of donor beads from total volume to get volume of dilution buffer. Added 6 μL to each well and covered with foil. Shaked on orbital shaker overnight at 500 rpm.
Read plate on a Perkin Elmer Envision. […]

Tyk2 selectivity over Jak2 (Jak2) | Tyk2 selectivity over Jak1 (Jak1) | SMILES
>313-fold | 35-fold | CC(=O)Nc1cc2c(-c3cccc([C@]4(CO)CCOC4)n3)cn(C)c2cn1 [Example 21, (S)-N-(3-(6-(3-(Hydroxymethyl)tetrahydrofuran-3-yl)pyridin-2-yl)-1-methyl-1H-pyrrolo[2,3-c]pyridin-5-yl)acetamide]
>1786-fold | 243-fold | CC[C@@]1(c2cccc(-c3cn(C)c4cnc(NC(N)=O)cc34)n2)CCOC1 [Example 3.2, (S)-1-(3-(6-(3-ethyltetrahydrofuran-3-yl)pyridin-2-yl)-1-methyl-1H-pyrrolo[2,3-c]pyridin-5-yl)urea]
>1389-fold | 83-fold | Cn1cc(-c2cncc([C@]3(C)CCOC3)n2)c2cc(NC(N)=O)ncc21 [Example 1b.5, (S)-1-(1-methyl-3-(6-(3-methyltetrahydrofuran-3-yl)pyrazin-2-yl)-1H-pyrrolo[2,3-c]pyridin-5-yl)urea]
>136-fold | 103-fold | COCCOc1cc(-c2cn(C)c3cnc(NC(C)=O)cc23)nc([C@]2(CO)CCOC2)c1 [Example 22.8, (S)-N-(3-(6-(3-(hydroxymethyl)tetrahydrofuran-3-yl)-4-(2-methoxyethoxy)pyridin-2-yl)-1-methyl-1H-pyrrolo[2,3-c]pyridin-5-yl)acetamide]
>281-fold | 393-fold | CO[C@@]1(c2cc(OC(F)F)cc(-c3cn(C)c4cnc(NC(C)=O)cc34)n2)CCOC1 [Example 22.2, (R)-N-(3-(4-(difluoromethoxy)-6-(3-methoxytetrahydrofuran-3-yl)pyridin-2-yl)-1-methyl-1H-pyrrolo[2,3-c]pyridin-5-yl)acetamide]
>806-fold | 871-fold | CO[C@@]1(c2cccc(-c3cn([C@H]4C[C@H](C#N)C4)c4cnc(NC(C)=O)cc34)n2)CCOC1 [Example 17, N-(1-((trans)-3-Cyanocyclobutyl)-3-(6-((R)-3-methoxytetrahydrofuran-3-yl)pyridin-2-yl)-1H-pyrrolo[2,3-c]pyridin-5-yl)acetamide]
>126-fold | 207-fold | CO[C@@]1(c2cc(C)cc(-c3cn(C)c4cnc(NC(C)=O)cc34)n2)CCOC1 [Example 2.2, (R)-N-(3-(6-(3-methoxytetrahydrofuran-3-yl)-4-methylpyridin-2-yl)-1-methyl-1H-pyrrolo[2,3-c]pyridin-5-yl)acetamide]
>187-fold | 470-fold | CO[C@@]1(c2cc(O[C@@H](C)CCO)cc(-c3cn(C)c4cnc(NC(C)=O)cc34)n2)CCOC1 [Example 14.4, N-(3-(4-(((S)-4-hydroxybutan-2-yl)oxy)-6-((R)-3-methoxytetrahydrofuran-3-yl)pyridin-2-yl)-1-methyl-1H-pyrrolo[2,3-c]pyridin-5-yl)acetamide]
>144-fold | 310-fold | CO[C@@]1(c2cc(C(F)F)cc(-c3cn(C4COC4)c4cnc(NC(C)=O)cc34)n2)CCOC1 [Example 4.3, (R)-N-(3-(4-(difluoromethyl)-6-(3-methoxytetrahydrofuran-3-yl)pyridin-2-yl)-1-(oxetan-3-yl)-1H-pyrrolo[2,3-c]pyridin-5-yl)acetamide]
>347-fold | 98-fold | CC(=O)Nc1cc2c(-c3cc(C(F)F)cc([C@]4(CO)CCOC4)n3)cn(C)c2cn1 [Example 22.5, (S)-N-(3-(4-(difluoromethyl)-6-(3-(hydroxymethyl)tetrahydrofuran-3-yl)pyridin-2-yl)-1-methyl-1H-pyrrolo[2,3-c]pyridin-5-yl)acetamide]
>21-fold | – | COCc1cc(-c2cn(C)c3cnc(NC(C)=O)cc23)nc([C@@]2(CO)CCOC2)c1 [Example 22a, (R)-N-(3-(6-(3-(hydroxymethyl)tetrahydrofuran-3-yl)-4-(methoxymethyl)pyridin-2-yl)-1-methyl-1H-pyrrolo[2,3-c]pyridin-5-yl)acetamide]

SMILES | Tyk2 selectivity over Jak2 (Jak2) | Tyk2 selectivity over Jak1 (Jak1)
CO[C@@]1(c2cc(OCC[C@H](C)O)cc(-c3cn(C)c4cnc(NC(C)=O)cc34)n2)CCOC1 [Example 9, N-(3-(4-((S)-3-Hydroxybutoxy)-6-((R)-3-methoxytetrahydrofuran-3-yl)pyridin-2-yl)-1-methyl-1H-pyrrolo[2,3-c]pyridin-5-yl)acetamide] | >294-fold | 494-fold
